Experimental data: US7208628B2, “Compositions and methods for the treatment of hepatitis C virus infection” (Kansas State University Research Foundation, priority 2002, dated 2007)

Molecular target: binding of HCV-E2 to CD81 on Molt4 T cells (Hepacivirus hominis (Hepatitis C virus), UniProt P27958)
Test: HCV-E2/CD81 binding assay on Molt4 T cells, detection with anti-E2 mAb 6F6 and flow cytometry
Parameters: species or system human
Settings: for ability to inhibit the HCV-E2 binding to CD81, relative activity in words: structure-activity comparison of linker, side chain and ester against the valine benzyl ester I45DC AL-2-140
From the text: Development of a Unique HCV-E2/CD81 Binding Assay. […] The binding of HCV-E2 to CD81 has been reported by several groups (see, e.g. Allander, T., et al., “Hepatitis C virus envelope protein E2 binds to CD81 of tamarins” Virology 277:358–367, 2000). Often those studies involved interactions of purified recombinant proteins. We sought to confirm published findings and to test the ability of HCV-E2 to bind to CD81 expressed on living T cells. Various concentrations of recombinant HCV-E2 (Ala 384 to Lys 715 of the HCV polyprotein produced in CHO cells; Austral Biologicals) was incubated with Molt4 T cells and binding of HCV-E2 to the cells was detected with the anti-E2 monoclonal antibody 6F6 (Austral Biologicals) followed by flow cytometry (FIG. 1). HCV-E2 binding to Molt4 T cells is concentration dependent and easily detectable at concentrations as low as 0.3 μg/mL. This binding assay differs from the assay published by Wünschmann in that the published assay used whole virus and not recombinant […] peptide. (Wünschmann, et al, “Characterization of Hepatitis C Virus (HCV) and HCV E2 Interactions with CD81 and the Low-Density Lipoprotein Receptor” J. Virology 74:10055–10062, 2000).
Effect of I45DCs on HCV-E2 binding to CD81 on T cells. […] Binding was measured by using the novel and sensitive method of the present invention for the detection of binding between the HCV envelope protein E2 and its cellular receptor CD81 on living human T cells. This experimental approach was employed in the evaluation of a series of newly synthesized I45DCs.
HCV-E2 was pre-incubated with or without […] of the indicated compound for 30 minutes at 37° C. prior to addition of HCV-E2 to Molt4 cells and detection as described above. […] The approximate EC50 of 19 was determined by conducting the same type of experiment in the presence of a 1:2 titration of 19 from […] (FIG. 5).

Chain of binding of HCV-E2 to CD81 on Molt4 T cells (P27958 384-715): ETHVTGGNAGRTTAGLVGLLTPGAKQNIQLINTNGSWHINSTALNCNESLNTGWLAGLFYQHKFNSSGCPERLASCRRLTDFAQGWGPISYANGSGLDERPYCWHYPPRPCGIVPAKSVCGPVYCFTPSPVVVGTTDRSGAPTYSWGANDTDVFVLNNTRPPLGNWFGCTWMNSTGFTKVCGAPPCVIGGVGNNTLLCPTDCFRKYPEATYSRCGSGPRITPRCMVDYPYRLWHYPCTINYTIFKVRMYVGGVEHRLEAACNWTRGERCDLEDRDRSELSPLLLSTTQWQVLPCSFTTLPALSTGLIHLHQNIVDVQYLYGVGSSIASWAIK
Chain of binding of HCV-E2 to CD81 on Molt4 T cells (P60033 whole entry, further chain): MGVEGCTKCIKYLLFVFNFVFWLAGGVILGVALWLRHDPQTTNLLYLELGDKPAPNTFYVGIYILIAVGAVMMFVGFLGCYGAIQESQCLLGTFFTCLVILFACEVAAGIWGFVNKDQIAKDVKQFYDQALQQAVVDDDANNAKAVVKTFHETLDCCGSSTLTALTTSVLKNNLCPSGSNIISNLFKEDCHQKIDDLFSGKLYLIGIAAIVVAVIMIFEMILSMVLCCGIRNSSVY

Structure (SMILES): CCN(CCN(CC)C(=O)c1nc[nH]c1C(=O)N[C@H](C(=O)OCc1ccccc1)C(C)C)C(=O)c1nc[nH]c1C(=O)N[C@H](C(=O)OCc1ccccc1)C(C)C [Compound 19]
- IC50 (CD81 expressed on human T cells, 1:2 titration of compound, FIG. 5, read-out: approximate IC50 value for blocking binding of HCV-E2 to CD81): ~45 µM
- bioactivity in the HCV-E2 binding assay (HCV-E2 pre-incubated with 500 mM compound for 30 minutes at 37° C. before addition to Molt4 cells): bioactivity in the sub-millimolar range
- ability to inhibit the HCV-E2 binding to CD81, relative activity in words: most active compound to date
- ability to inhibit the HCV-E2 binding to CD81, relative activity in words (listed as AL-2-140): most active
